The test concerns the target T1, plasma kallikrein (PKa) (Homo sapiens, UniProt P03952).
T1 construct: purchased R & D 2497-SE
As to the kind of experiment: Inhibitory activity against plasma kallikrein in vitro (fluorescence intensity enzyme assay, Pro-Phe-Arg-AMC substrate). It is filed as biochemical. The following applies: Pro-Phe-Arg-AMC substrate. As for the experimental part:
Test of the inhibitory activities of the compounds of the present invention against plasma kallikrein (PKa), KLK1 and FXIa in vitro.
The final concentrations of enzyme protein and Pro-Phe-Arg-AMC in the reaction mixture were 10 nM and 60 µM, respectively. The starting concentration of the positive reference substance Avoralstat was 100 nM, 3-fold dilution, 10 + 0 dose. 0.05 µL of compound in 100% DMSO was delivered to a 384-well plate by an acoustic liquid delivery technique (Echo665; nanoliter range). Compound duplex test. […] IC50 values and nonlinear regression curve fitting were obtained using GraphPad Prism software.

[1] abbreviates: plasma kallikrein enzyme assay, read-out: PKa IC50.
[2] abbreviates: PKa IC50, plasma kallikrein enzyme assay.

This is an account of results in patent publication EP4737450A1 (Longwood Pharmaceuticals (Hangzhou) Co., Ltd, priority 2023, dated 2025).

Like-named read-outs stand apart in the source and are kept apart here.

T1 sequence (P03952 391-638 limits assumed): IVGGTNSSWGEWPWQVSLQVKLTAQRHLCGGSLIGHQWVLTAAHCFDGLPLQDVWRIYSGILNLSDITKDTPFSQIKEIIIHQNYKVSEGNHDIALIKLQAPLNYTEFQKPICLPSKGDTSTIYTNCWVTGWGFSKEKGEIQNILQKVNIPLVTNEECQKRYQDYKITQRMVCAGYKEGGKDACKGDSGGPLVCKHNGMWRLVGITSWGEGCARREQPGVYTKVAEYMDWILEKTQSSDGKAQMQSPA
T1 sequence (P03952 20-390 partner limits assumed): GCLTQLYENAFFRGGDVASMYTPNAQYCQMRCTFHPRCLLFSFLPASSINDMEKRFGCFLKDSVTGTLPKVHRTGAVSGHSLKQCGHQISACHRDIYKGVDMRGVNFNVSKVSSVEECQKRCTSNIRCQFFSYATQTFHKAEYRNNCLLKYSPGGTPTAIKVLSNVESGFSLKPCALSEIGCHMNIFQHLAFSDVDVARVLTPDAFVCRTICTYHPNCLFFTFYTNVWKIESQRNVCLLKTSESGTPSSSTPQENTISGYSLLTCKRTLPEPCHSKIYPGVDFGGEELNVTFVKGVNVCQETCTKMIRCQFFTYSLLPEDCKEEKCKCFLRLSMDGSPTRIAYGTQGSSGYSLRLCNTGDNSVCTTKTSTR

The term IC50 denotes the point on the concentration scale where inhibition reaches its midpoint. As for `COc1ccnc(CNC(=O)c2cn(Cc3ccc(Cn4ccccc4=O)cc3)nc2NC2(C)COC2)c1F` [Compound 297], the IC50 under setting [1] is 2.83 nM.
On the same count and under the same terms, to `COCc1nn(Cc2ccc(-n3ccccc3=O)cc2)cc1C(=O)NCc1nccc(OC)c1F` [Compound 92] belongs > 100 nM; to `COc1ccnc(CNC(=O)c2cn(Cc3ccc(Cn4ccccc4=O)cc3)nc2COCCN(C)C)c1F` [Compound 191], 16.3 nM; to `COCc1nn(Cc2ccc(Cn3ccccc3=O)cc2)cc1C(=O)NCc1cc2ccncc2n1C` [Compound 135], 131 nM.
Regarding `COc1ccc(C#N)c(CNC(=O)c2cn(Cc3ccc(Cn4ccccc4=O)cc3)nc2C(F)(F)F)c1C` [Compound 202], under setting [1], the IC50 is > 1000 nM.
Same read-out and setting: the figure for `Cc1cc(N)nc(C)c1CNC(=O)c1nc(Cc2ccc(Cn3ccccc3=O)cc2)ns1` [Compound 84] is 64.7 nM.
Still for that read-out and setting: to `COc1ccnc(CNC(=O)c2cn(Cc3ccc(Cn4ccccc4=O)cc3)nc2C2CN(C(=O)C(C)C)C2)c1F` [Compound 173] belongs 11.8 nM; to `O=C(NCc1nccc(NC2COC2)c1F)c1cn(Cc2ccc(Cn3ccccc3=O)cc2)nc1C1COC1` [Compound 331], > 1000 nM; to `O=C(NCc1cc2cnccc2[nH]1)c1cn(Cc2ccc(Cn3ccccc3=O)cc2)nc1C(F)(F)F` [Compound 123], 29.5 nM.
Still for that read-out and setting: to `Cc1nc(N)ncc1CNC(=O)c1ncn(Cc2ccc(Cn3cc(F)ccc3=O)cc2)n1` [Compound 31] belongs > 1000 nM; to `COCc1nn(Cc2ccc(N3CCOCC3=O)cc2)cc1C(=O)NCc1nccc(OC)c1F` [Compound 89], > 100 nM.
For `N#Cc1cc(N2CC3C(C2)C3(F)F)ccc1Cn1cc(C(=O)NCc2cc3ccncc3[nH]2)c(C(F)(F)F)n1` (stereo not drawn) [Compound 178], under setting [1], the IC50 stood at 7.74 nM.
Same read-out and setting: the figure for `COc1ccc(F)c(CNC(=O)c2cn(Cc3ccc(Cn4cc(F)ccc4=O)c(F)c3)nc2C2CC(OC)C2)c1F` (stereo not drawn) [Compound 227] is 9.15 nM.
On to `COc1ccnc(CNC(=O)c2cn(Cc3ccc(Cn4ccccc4=O)cc3)nc2N2CC3(COC3)C2)c1F` [Compound 288], for which the IC50 under setting [1] came to 11.5 nM.
As to `CNc1ccnc(CNC(=O)c2cn(Cc3ccc(CC4CC4)cc3)nc2C2COC2)c1F` [Compound 344], the IC50 under setting [1] was 237 nM.
Same read-out and setting: the figure for `O=C(NCc1nccc(N2CCCC2)c1F)c1cn(Cc2ccc(CC3CC3)cc2)nc1C1COC1` [Compound 333] is > 1000 nM.
`O=C(NCc1nccc2[nH]ccc12)c1cn(Cc2ccc(Cn3ccccc3=O)cc2)nc1C1COC1` [Compound 325]: the IC50 under setting [1] came out at 38.6 nM.
The same measure, in the same setting: to `Cn1cnc2c1CC[C@H]2NC(=O)c1ncn(Cc2ccc(CN3CCCCC3=O)cc2)n1` [Compound 79] belongs > 100 nM; to `COc1ccc(F)c(CNC(=O)c2cn(Cc3ccc(Cn4cc(F)ccc4=O)cc3)nc2COCC2(C)COC2)c1F` [Compound 285], 10.5 nM.
Same read-out and setting: to `COCc1nn(Cc2ccc(Cn3ccccc3=O)cc2)cc1C(=O)NCc1c(C#N)ccc(OC)c1C` [Compound 190] belongs > 1000 nM; to `COCc1nn(Cc2ccc(Cn3ccccc3=O)cc2)cc1C(=O)NCc1cc2cnccc2n1C` [Compound 139], 12.6 nM; to `Cn1ccc2c(CNC(=O)c3cn(Cc4ccc(Cn5ccccc5=O)cc4)nc3C3COC3)nccc21` [Compound 336], 13.9 nM.
`COCc1nn(Cc2ccc(Cn3ccccc3=O)cc2)cc1C(=O)NCc1nccc(SC)c1F` [Compound 132]: half-maximal inhibition under setting [2] (IC50) required 7.29 nM.
Take `COc1ccc(F)c(CNC(=O)c2cn(Cc3ccc(Cn4cc(F)ccc4=O)cc3)nc2[C@H](C)C2COC2)c1F` [Compound 179]: the IC50 under setting [1] is 15 nM.
With `COc1ccnc(CNC(=O)c2cn(Cc3ccc(Cn4ccccc4=O)cc3)nc2-c2cnccn2)c1F` [Compound 301], under setting [1], the IC50 is 24.9 nM.
Consider `COc1ccc(F)c(CNC(=O)c2cn(Cc3ccc(Cn4cc(F)ccc4=O)c(F)c3)nc2C2CC(F)(F)C2)c1F` [Compound 228], for which, under setting [1], the IC50 was 16.4 nM.
Same read-out and setting: to `CC(C)CNc1ccnc(CNC(=O)c2cn(Cc3ccc(Cn4ccccc4=O)cc3)nc2C2COC2)c1F` [Compound 269] belongs > 1000 nM; to `COCc1nn(Cc2ccc(Oc3ccccc3)cc2)cc1C(=O)NCc1cc2ccncc2[nH]1` [Compound 185], 84.5 nM.
The same measure, in the same setting: the figure for `C#Cc1nn(Cc2ccc(Cn3ccccc3=O)cc2)cc1C(=O)NCc1c(C)cc(N)nc1C` [Compound 81] is 77 nM; for `COCc1nn(Cc2ccc(CN3CC(F)(F)C3)cc2)cc1C(=O)NCc1nccc(OC)c1F` [Compound 103] it is > 100 nM.
Same read-out and setting: to `COc1ccc(C#N)c(CNC(=O)c2cnn(Cc3ccc(Cn4ccccc4=O)cc3)c2)c1C` [Compound 189] belongs 180 nM; to `COCc1cn(Cc2ccc(Cn3ccccc3=O)cc2)nc1C(=O)N[C@@H]1CCc2c1ncn2C` [Compound 59], > 100 nM.
Under setting [2], `COCc1nn(Cc2ccc(Cn3ccccc3=O)cc2)cc1C(=O)NCc1ncc2c(n1)CNC2` [Compound 144] yielded an IC50 of 25.9 nM.
In the case of `COc1ccnc(CNC(=O)c2cn(Cc3ccc(Cn4cc(F)ccc4=O)cc3)nc2COCC2(C)COC2)c1F` [Compound 286], under setting [1], the IC50 was 10.8 nM.
Still for that read-out and setting: to `COc1ccnc(CNC(=O)c2cn(Cc3ccc(Cn4ccccc4=O)cc3)nc2C2CC2(F)F)c1F` (stereo not drawn) [Compound 216] belongs 2.64 nM; to `O=C(NCc1cc2cnccc2[nH]1)c1nc(Cc2ccc(Cn3ccccc3=O)cc2)ns1` [Compound 122], 124 nM.
Under setting [2], `N/C(=N\O)c1ccc(CNC(=O)c2cnn(Cc3ccc(CC4CC4)cc3)c2)cc1` [Compound 348, (Z)-1-(4-(cyclopropylmethyl)benzyl)-N-(4-(N'-hydroxycarbamoyl)benzyl)-1H-pyrazole-4-carboxamide] registered an IC50 of 3.75 nM.
On to `N=C(N)c1ccc(CNC(=O)c2cnn(Cc3ccc(OCC4CC4)cc3)c2)cc1` [Compound 360], for which, under setting [1], the IC50 is 3.29 nM.
Same read-out and setting: the figure for `COCc1nn(Cc2cn3cc(C4CC4)ccc3n2)cc1C(=O)NCc1c(C)cc(N)nc1C` [Compound 21] is 2.98 nM.
On the same count and under the same terms, the figure for `COc1ccnc(CNC(=O)c2cn(Cc3ccc(Cn4ccccc4=O)cc3)nc2COC2CCOCC2)c1F` [Compound 295] is 16.3 nM; for `COc1ccc(F)c(CNC(=O)c2cn(Cc3ccc(Cn4cc(F)ccc4=O)cc3)nc2COCCN(C)C)c1F` [Compound 219] it is 4.98 nM.
Still for that read-out and setting: to `COCc1nn(Cc2ccc(CN3CCCCC3=O)cc2)cc1C(=O)NCc1nccc(OC)c1F` [Compound 77] belongs 62.9 nM; to `Cn1cc(Cl)c2cnc(CNC(=O)c3cnn(Cc4ccc(Cn5ccccc5=O)cc4)c3)c(F)c21` [Compound 367], 43 nM; to `COCc1nn(Cc2ccc(Cn3ccccc3=O)cc2)cc1C(=O)NCc1cc2cnccc2n1C` [Compound 161], 12.7 nM.
In the case of `COc1ccnc(CNC(=O)c2cn(Cc3ccc(Cn4ccccc4=O)cc3)nc2CN2CCCC2=O)c1F` [Compound 169], the IC50 under setting [1] stood at 11.9 nM.
On to `Cc1[nH]c(C(=O)NCc2cc3cnccc3[nH]2)c(C)c1Cc1ccc(Cn2ccccc2=O)cc1` [Compound 148], for which, under setting [1], the IC50 was 347 nM.
The same measure, in the same setting: to `COc1ccc(F)c(CNC(=O)c2cn(Cc3ccc(Cn4ccccc4=O)cc3)nc2NC2(C)COC2)c1F` [Compound 300] belongs 1.94 nM; to `CCc1cc(N2CC3C(C2)C3(F)F)ccc1Cn1cc(C(=O)NCc2cc3ccncc3[nH]2)c(C(F)(F)F)n1` (stereo not drawn) [Compound 199], 19.8 nM; to `COCc1nn(Cc2ccc(N3CC4C(C3)C4(F)F)cc2C#N)cc1C(=O)NCc1cc2cnccc2[nH]1` (stereo not drawn) [Compound 86], 21.2 nM.
As to `N=C(N)c1ccc(CNC(=O)c2cn(Cc3ccc(Oc4ccccc4)cc3)nc2C(F)(F)F)cc1` [Compound 134], the IC50 under setting [1] turned out to be 4.47 nM.
Still for that read-out and setting: the figure for `COc1ccc(F)c(CNC(=O)c2cn(Cc3ccc(Cn4ccccc4=O)cc3)nc2C2CC(C)(OC)C2)c1F` (stereo not drawn) [Compound 211] is 8.34 nM; for `COCc1nn(Cc2ccc(CN3CCCCCC3)cc2)cc1C(=O)NCc1nccc(OC)c1F` [Compound 102] it is > 100 nM.
Same read-out and setting: to `CN(C)c1ccnc(CNC(=O)c2cn(Cc3ccc(Cn4ccccc4=O)cc3)nc2N2CC3(C2)OCC3(C)C)c1F` [Compound 313] belongs 3.24 nM.
With `COc1ccc(F)c(CNC(=O)c2cn(Cc3ccc(Cn4cc(F)ccc4=O)cc3)nc2COCC2(F)COC2)c1F` [Compound 234], the IC50 under setting [1] is 4.97 nM.
Still for that read-out and setting: the figure for `COc1ccnc(CNC(=O)c2cn(Cc3ccc(Cn4ccccc4=O)cc3)nc2OCc2ccccn2)c1F` [Compound 229] is 22.9 nM; for `COc1ccc(F)c(CNC(=O)c2cn(Cc3ccc(Cn4cc(F)ccc4=O)cc3)nc2COC2(C)COC2)c1F` [Compound 236] it is 16.6 nM.
The same measure, in the same setting: to `COCc1nn(Cc2ccc(Cn3ccccc3=O)cc2)cc1C(=O)NCc1ccc2nccn2c1` [Compound 126] belongs 229 nM; to `COc1ccnc(CNC(=O)c2cn(Cc3ccc(Cn4ccccc4=O)cc3)nc2N2CC(OC(C)C)C2)c1F` [Compound 307], 4.57 nM; to `Nc1nc2ccc(CNC(=O)c3cnn(Cc4ccc(Cn5ccccc5=O)cc4)c3)cc2s1` [Compound 215], 797 nM.
Same read-out and setting: the figure for `CCN(CC)CCOCc1nn(Cc2ccc(Cn3ccccc3=O)cc2)cc1C(=O)NCc1nccc(OC)c1F` [Compound 239] is 6.95 nM; for `COc1ccnc(CNC(=O)c2cn(Cc3ccc(Cn4ccccc4=O)cc3)nc2COCC(C)(C)OC)c1F` [Compound 299] it is 11.2 nM; for `COc1ccnc(CNC(=O)c2cn(Cc3ccc(Cn4ccccc4=O)cc3)nc2COCC(=O)N(C)C)c1F` [Compound 164] it is 26.3 nM.
Turning to `Cc1cnn(C)c1-c1nn(Cc2ccc(Cn3ccccc3=O)cc2)cc1C(=O)NCc1nccc(N(C)C)c1F` [Compound 166], the IC50 under setting [1] was found to be 4.59 nM.
